Source: patent US20220289698A1, “INHIBITORS OF HUMAN ATGL” (Karl-Franzens-Universität Graz, priority 2019, published 2022)
pIC50: −log10 of the molar value. Read-outs that look alike come from different tables or passages of the source.

Experiments:
[1] = target: T1, murine ATGL (Mus musculus, UniProt Q8BJ56); assay: TG hydrolase activity, Expi lysates expressing mouse ATGL + CGI-58, radiolabelled triolein; type: biochemical
T1 construct: made in house; host or cells: Expi cells (lysate)
T1 sequence (Q8BJ56 1-486): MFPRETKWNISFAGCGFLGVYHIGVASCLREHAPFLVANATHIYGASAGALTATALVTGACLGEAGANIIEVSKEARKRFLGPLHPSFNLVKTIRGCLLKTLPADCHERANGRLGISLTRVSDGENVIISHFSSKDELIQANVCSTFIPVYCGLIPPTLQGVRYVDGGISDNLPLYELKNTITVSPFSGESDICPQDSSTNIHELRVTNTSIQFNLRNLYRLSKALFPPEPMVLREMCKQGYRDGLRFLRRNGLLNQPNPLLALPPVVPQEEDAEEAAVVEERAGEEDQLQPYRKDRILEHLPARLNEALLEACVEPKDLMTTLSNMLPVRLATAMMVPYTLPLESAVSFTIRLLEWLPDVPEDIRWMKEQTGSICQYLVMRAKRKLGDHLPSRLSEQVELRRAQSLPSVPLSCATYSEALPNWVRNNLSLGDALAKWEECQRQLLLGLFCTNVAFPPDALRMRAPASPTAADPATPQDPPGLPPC
Experimental: (§1) Triglyceride (TG) hydrolase activity was measured as previously described (Schweiger M et al., Methods in Enzymology, 2014, 538:171-93). In brief, TG hydrolase activity was determined by adding recombinant purified CGI-58 to Expi cell lysates expressing human ATGL. For determination of cross-species reactivity Expi lysates expressing ATGL from different model organisms (e.g. mouse, rat, rhesus monkey, goat, etc.) were used. Samples were incubated with DMSO (carrier) or increasing concentrations of ATGL inhibitors dissolved in DMSO. TG substrate was prepared by emulsifying 330 μM radiolabelled triolein (40,000 c.p.m./nmol) and 45 μM phosphatidylcholine/phosphatidylinositol (3:1) in 100 mM potassium phosphate buffer (pH 7.0) by sonication and adjusting to 5% essentially FA-free BSA. TG substrate was added to the reaction mixture and incubated for 1 h at 37° C. in the water bath. The reaction was terminated by adding methanol/chloroform/heptane (10:9:7) and 0.1 M potassium carbonate with 0.1 M boric acid (pH 10.5). After centrifugation at 800 g for 15 min the radioactivity in the upper phase was determined by liquid scintillation counting and the rate of FA hydrolysis was calculated. IC50 values were determined as inhibitor concentration capable of inhibiting TG hydrolase activity by 50% as compared to DMSO control. Samples were measured as duplicates. The determination of IC50 values for human ATGL is illustrated in FIG. 1.
Lysates from Expi cells overexpressing ATGL from mouse (Mus musculus) were incubated with recombinant purified ATGL co-activator CGI-58 and ATGL inhibitors at 50 μM. Subsequently, substrate containing radiolabeled triolein was added and liberated FA were extracted and quantified by liquid scintillation. Inhibitors were dissolved in DMSO which was used as control. Samples were measured in triplicates.

[2] = target: T2, human ATGL (Homo sapiens, UniProt Q96AD5); assay: TG hydrolase activity, Expi cell lysates expressing human ATGL + CGI-58, radiolabelled triolein; type: biochemical
T2 construct: made in house; host or cells: Expi cells (lysate, not purified)
T2 sequence (Q96AD5 1-504): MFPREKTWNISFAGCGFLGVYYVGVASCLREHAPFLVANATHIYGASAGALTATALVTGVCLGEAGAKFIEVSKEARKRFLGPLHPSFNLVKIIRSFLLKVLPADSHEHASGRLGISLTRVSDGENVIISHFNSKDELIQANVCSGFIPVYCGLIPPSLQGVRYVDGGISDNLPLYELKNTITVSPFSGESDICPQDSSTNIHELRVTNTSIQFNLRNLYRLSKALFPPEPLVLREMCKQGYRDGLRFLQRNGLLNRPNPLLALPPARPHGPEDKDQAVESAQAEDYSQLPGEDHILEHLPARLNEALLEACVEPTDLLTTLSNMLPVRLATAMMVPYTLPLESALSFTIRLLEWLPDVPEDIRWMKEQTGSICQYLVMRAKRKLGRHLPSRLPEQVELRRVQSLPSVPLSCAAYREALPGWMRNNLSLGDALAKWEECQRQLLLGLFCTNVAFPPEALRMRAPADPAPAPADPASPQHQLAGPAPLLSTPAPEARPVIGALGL
Experimental: as §1

[3] = 50 μM compound, Example 237, read-out: Inhibition of murine ATGL at 50 μM − mean [%]
[4] = Example 237, read-out: Inhibition of human ATGL − IC50
[5] = 50 μM, Example 238, read-out: % Inhibition of murine ATGL at 50 μM
[6] = Example 238, read-out: Inhibition of human ATGL IC50

Compound	inhibition at 50 µM [1, 3]	inhibition at 50 µM ([1]; 50 μM, overview table, read-out: mouse ATGL inhibition [% inhibition at 50 μM])	pIC50 [2, 4]	inhibition at 50 µM [1, 5]	pIC50 [2, 6]
CCOc1ccc(-c2nc(C(=O)OC(C)C)cs2)cc1 [Example 123, Isopropyl 2-(4-ethoxyphenyl) thiazole-4-carboxylate]	10.6%	20%	5.52		
C=CCOC(=O)c1csc(-c2ccc(OCC)cc2)n1 [Example 147, Allyl 2-(4-ethoxyphenyl)thiazole-4-carboxylate]	30%		5.52		
CCOc1ccc(-c2nc(C(=O)OC3CCC3)cs2)cc1 [Example 129, Cyclobutyl 2-(4-ethoxyphenyl)thiazole-4-carboxylate]	5.1%		5.22		
C#CCC(C)OC(=O)c1csc(-c2ccc(OCC)cc2)n1 (stereo not shown) [Example 208, Pont-4-yn-2-yl 2-(4-ethoxyphenyl)thiazole-4-carboxylate]				59%	5.00
CCCCCOc1ccc(-c2nc(C(=O)OCC)cs2)cc1 [Example 110, Ethyl 2-(4-(pentyloxy)phenyl)thiazole-4-carboxylate]	0%		4.60		
CCOc1ccc(-c2nc(C(=O)OC3CCCC3)cs2)cc1 [Example 127, Cyclopentyl 2-(4-ethoxyphenyl)thiazole-4-carboxylate]	0%		5.30		
CCC(C)c1ccc(-c2cc(OC)cc(C(=O)OC(C)C)n2)cc1 (stereo not shown) [Example 56]	0%		5.15		
CCOC(=O)c1csc(-c2ccc(SC)cc2)n1 [Example 99, Ethyl 2-(4-(methylthio)phenyl)thiazole-4-carboxylate]	37.3%		4.92		
CCOC(=O)c1nc(-c2ccc(OCC)cc2)sc1OC [Example 126, Ethyl 2-(4-ethoxyphenyl)-5-methoxythiazole-4-carboxylate]	2.2%		5.30		
CCOc1ccc(-c2nc(C(=O)OCc3cncs3)cs2)cc1 [Example 217, Thiazol-5-ylmethyl-2-(4-ethoxyphenyl)thiazole-4-carboxylate]				77%	4.70
CC(C)OC(=O)c1cccc(-c2ccc(OC(C)C)cc2)n1 [Example 95]	13.1%		5.52		
C#CC(C)OC(=O)c1cc(OC)cc(-c2ccc(CCC)cc2)n1 (stereo not shown) [Example 54]	0%		4.70		
CCCCCCOc1ccc(-c2nc(C(=O)OCC)cs2)cc1 [Example 111, Ethyl 2-(4-(hexyloxy)phenyl)thiazole-4-carboxylate]	0%		4.60		
CCOC(=O)c1nc(-c2ccc(OCC)cc2)sc1C [Example 124, Ethyl 2-(4-ethoxyphenyl)-5-methylthiazole-4-carboxylate]	33.7%		4.77		
CCOC(=O)c1csc(-c2ccc(N(C)C)cc2)n1 [Example 103, Ethyl 2-(4-(dimethylamino)phenyl)thiazole-4-carboxylate]	33.9%		4.60		
CC(C)OC(=O)c1cccc(-c2ccc(F)cc2)n1 [Example 25]	10.9%		5.10		
CCOC(=O)c1csc(-c2ccc(OCC(C)C)cc2)n1 [Example 104, Ethyl 2-(4-isobutoxyphenyl)thiazole-4-carboxylate]	0%		4.92		
CCOC(=O)c1csc(-c2ccc(OCC(F)(F)F)cc2)n1 [Example 108, Ethyl 2-(4-(2,2,2-trifluoroethoxy)phenyl)thiazole-4-carboxylate]	8%		5.30		

Compound	inhibition at 50 µM [1, 3]	inhibition at 50 µM ([1]; 50 μM, overview table, read-out: mouse ATGL inhibition [% inhibition at 50 μM])	pIC50 [2, 4]	inhibition at 50 µM [1, 5]	pIC50 [2, 6]
CCOC(=O)c1csc(-c2ccc(SCC)cc2)n1 [Example 98, Ethyl 2-(4-(ethylthio)phenyl)thiazole-4-carboxylate]	0%		4.92		
C=CCOc1ccc(-c2nc(C(=O)OCC)cs2)cc1 [Example 113, Ethyl 2-(4-(allyloxy)phenyl)thiazole-4-carboxylate]	24.6%		5.22		
CCOC(=O)c1nc(-c2ccc(OCC)cc2)sc1Cl [Example 125, Ethyl 5-chloro-2-(4-ethoxyphenyl)thiazole-4-carboxylate]	11.1%		4.60		
CCOC(=O)c1csc(-c2ccc(OC)cc2)n1 [Example 102, Ethyl 2-(4-methoxyphenyl)thiazole-4-carboxylate]	21.5%		5.22		
CCOc1ccc(-c2nc(C(=O)OC3CCCCC3)cs2)cc1 [Example 133, Cyclohexyl 2-(4-ethoxyphenyl)thiazole-4-carboxylate]	0%		4.60		
CCOc1ccc(-c2nc(C(=O)O[C@H]3CCC[C@H]3C)cs2)cc1 [Example 139, (1S,2R)-2-Methylcyclopentyl 2-(4-ethoxyphenyl)thiazole-4-carboxylate]	0%		4.82		
CCOC(=O)c1csc(-c2ccc(OC(C)C)cc2)n1 [Example 106, Ethyl 2-(4-isopropoxyphenyl)thiazole-4-carboxylate]	21.6%		5.30		
C/C=C/COC(=O)c1csc(-c2ccc(OCC)cc2)n1 [Example 121, (E)-but-2-en-1-yl 2-(4-ethoxyphenyl)thiazole-4-carboxylate]	41.2%		4.92		
CC(C)OC(=O)c1cccc(CCc2ccccc2)n1 [Example 80]	3.4%		4.30		
CCOC(=O)c1csc(-c2ccc(OC(C)CC)cc2)n1 (stereo not shown) [Example 112, Ethyl 2-(4-(sec-butoxy)phenyl)thiazole-4-carboxylate]	1.3%		5.00		
CCOc1ccc(-c2nc(C(=O)OCc3ccco3)cs2)cc1 [Example 153, Furan-2-ylmethyl 2-(4-ethoxyphenyl)thiazole-4-carboxylate]	42.2%		5.30		
CCOc1ccc(-c2nc(C(=O)OC3CC3)cs2)cc1 [Example 151, Cyclopropyl 2-(4-ethoxyphenyl)thiazole-4-carboxylate]	12.1%		5.60		
CCOc1ccc(-c2nc(C(=O)OCC=C(C)C)cs2)cc1 [Example 143, 3-Methylbut-2-en-1-yl 2-(4-ethoxyphenyl)thiazole-4-carboxylate]	16.8%		4.70		
CCOc1ccc(-c2nc(C(=O)OC(C)(C)C)cs2)cc1 [Example 150, tert-Butyl 2-(4-ethoxyphenyl)thiazole-4-carboxylate]	6.3%		5.30		
CCOc1ccc(-c2nc(C(=O)OC(CF)CF)cs2)cc1 [Example 135, 1,3-Difluoropropan-2-yl 2-(4-ethoxyphenyl)thiazole-4-carboxylate]	5.8%		5.52		
CCOc1ccc(-c2nc(C(=O)OC(C)(C)CC)cs2)cc1 [Example 118, tert-Pentyl 2-(4-ethoxyphenyl)thiazole-4-carboxylate]	0%		4.60		
CCOC(=O)c1csc(-c2ccc(SC(C)C)cc2)n1 [Example 100]	0%		4.70		
CC(C)OC(=O)c1cccc(-c2ccccc2)n1 [Example 24]	38%		4.60		
